Here are results for 30 molecules from patent US7507860B2 (Pfizer Inc., priority 2004, dated 2009).

The target of the assay is T1, human androgen receptor (hAR) (Homo sapiens, UniProt P10275).
T1 construct: made in house; host or cells: baculovirus/Sf9 insect cells (crude extract)
T1 sequence (P10275 1-920): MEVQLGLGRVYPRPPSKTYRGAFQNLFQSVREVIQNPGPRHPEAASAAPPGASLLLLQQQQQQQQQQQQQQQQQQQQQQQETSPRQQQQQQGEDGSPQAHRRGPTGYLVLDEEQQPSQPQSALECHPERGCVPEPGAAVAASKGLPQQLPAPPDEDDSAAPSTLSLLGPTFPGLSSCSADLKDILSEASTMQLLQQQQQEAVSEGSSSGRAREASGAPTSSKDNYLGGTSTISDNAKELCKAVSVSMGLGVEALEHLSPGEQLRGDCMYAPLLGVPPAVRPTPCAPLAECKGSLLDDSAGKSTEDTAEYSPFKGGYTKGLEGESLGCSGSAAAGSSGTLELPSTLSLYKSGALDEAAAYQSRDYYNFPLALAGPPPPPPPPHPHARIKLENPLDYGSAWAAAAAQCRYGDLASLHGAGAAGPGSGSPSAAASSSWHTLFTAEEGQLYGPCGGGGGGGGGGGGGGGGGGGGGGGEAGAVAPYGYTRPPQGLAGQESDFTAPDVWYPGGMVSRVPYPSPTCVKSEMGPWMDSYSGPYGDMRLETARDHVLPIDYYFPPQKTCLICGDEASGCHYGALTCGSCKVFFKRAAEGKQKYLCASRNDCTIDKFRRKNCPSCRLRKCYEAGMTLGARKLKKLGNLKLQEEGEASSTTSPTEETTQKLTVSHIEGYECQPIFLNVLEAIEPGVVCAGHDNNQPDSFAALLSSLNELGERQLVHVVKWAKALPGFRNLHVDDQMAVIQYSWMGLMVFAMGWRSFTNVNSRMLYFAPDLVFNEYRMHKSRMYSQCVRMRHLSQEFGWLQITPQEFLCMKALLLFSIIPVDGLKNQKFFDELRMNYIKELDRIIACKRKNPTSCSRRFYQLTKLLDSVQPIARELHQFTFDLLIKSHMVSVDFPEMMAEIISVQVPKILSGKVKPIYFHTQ
As to the kind of experiment: Competitive binding analysis on baculovirus/Sf9 generated hAR extracts with 3H-DHT tracer. The following applies: hAR extract, 1 nM 3H-DHT, one hour at 4° C; mean of multiple tests; read-out: AR Binding IC50. As for the experimental part: The compounds of Formula I have affinity for the androgen receptor. […] The description below describes how the assay was carried out.
Competitive binding analysis was performed on baculovirus/Sf9 generated hAR extracts in the presence or absence of different concentrations of test agent and a fixed concentration of ^3H-dihydrotestosterone (^3H-DHT) as tracer. This binding assay method is a modification of a protocol previously described (Liao S., et. al. J. Steroid Biochem. 20:11-17 1984). Briefly, progressively decreasing concentrations of compounds are incubated in the presence of hAR extract (Chang et al. P.N.A.S. Vol. 89, pp. […], 1992), hydroxylapatite, and 1 nM^3H-DHT for one hour at 4° C. Subsequently, the binding reactions are washed three times to completely remove excess unbound ^3H-DHT. hAR bound ^3H-DHT levels are determined in the presence of compounds (=i.e competitive binding) and compared to levels bound when no competitor is present (=i.e. maximum binding). Compound binding affinity to the hAR is expressed as the concentration of compound at which one half of the maximum binding is inhibited. Table II below provides the results that were obtained for selected compounds (reported data is the mean of multiple tests as shown below)
With “2-(4-Cyano-3-trifluoromethyl-phenoxy)-4-methyl-pentanoic acid (2H-imidazo[1,2-a]pyridin-3-yl)-methyl)amide [Example 60]”, the half-maximal inhibitory concentration (IC50) (as a rule, the point on the concentration scale where inhibition reaches its midpoint) is 318 nM.
On to `COc1ccc([C@@H](C)NC(=O)C(CC(C)C)Oc2ccc(C#N)c(C(F)(F)F)c2)cc1` (stereo in doubt) [Example 110, 2-(4-Cyano-3-trifluoromethyl-phenoxy)-4-methyl-pentanoic acid [1-(4-methoxy-phenyl)-ethyl]-amide], for which the IC50 came out at 340 nM.
For `CC(C)CC(Oc1ccc(C#N)c(C(F)(F)F)c1)C(=O)N[C@@H](C)c1ccccc1` (stereo in doubt) [Example 112, 2-(4-Cyano-3-trifluoromethyl-phenoxy)-4-methyl-pentanoic acid (1-phenyl-ethyl)-amide] the value was 329 nM.
For `CC(C)CC(Oc1ccc(C#N)c(C(F)(F)F)c1)C(=O)N[C@H](C)c1ccccc1` (stereo in doubt) [Example 122, 2-(4-Cyano-3-trifluoromethyl-phenoxy)-4-methyl-pentanoic acid (1-phenyl-ethyl)-amide] the value was 329 nM.
`CCNC(=O)C(CC(C)C)Oc1ccc(C#N)c(C(F)(F)F)c1` (stereo not drawn) [Example 3, 2-(4-Cyano-3-trifluoromethyl-phenoxy)-4-methyl-pentanoic acid ethylamide]: the IC50 amounted to 247 nM.
For the molecule `CCCC(Oc1ccc(C#N)c(C(F)(F)F)c1)C(=O)NC(C)c1ccc(O)cc1` (stereo not drawn) [Example 6, 2-(4-Cyano-3-trifluoromethyl-phenoxy)-pentanoic acid [1-(4-hydroxy-phenyl)ethyl]-amide], the IC50 turned out to be 455 nM.
For `CC(C)CC(Oc1ccc(C#N)c(C(F)(F)F)c1)C(=O)NCc1ccncc1` (stereo not drawn) [Example 16, 2-(4-Cyano-3-trifluoromethyl-phenoxy)-4-methyl-pentanoic acid (pyridin-4-yl-methyl)-amide] the value was 368 nM; for `CCCC(Oc1ccc(C#N)c(C(F)(F)F)c1)C(=O)NC(C)c1cccs1` (stereo not drawn) [Example 17, 2-(4-Cyano-3-trifluoromethyl-phenoxy)-pentanoic acid (1-thiophen-2-yl-ethyl)amide], 1000 nM; for `Cc1cccnc1CNC(=O)C(CC(C)C)Oc1ccc(C#N)c(C(F)(F)F)c1` (stereo not drawn) [Example 20, 2-(4-Cyano-3-trifluoromethyl-phenoxy)-4-methyl-pentanoic acid (3-methyl-pyridin-2-yl-methyl)-amide], 410 nM.
For `CSCCCNC(=O)C(CC(C)C)Oc1ccc(C#N)c(C(F)(F)F)c1` (stereo not drawn) [Example 21, 2-(4-Cyano-3-trifluoromethyl-phenoxy)-4-methyl-pentanoic acid (3-methylsulfanyl-propyl)-amide] the value was 362 nM.
As to `CC(C)CC(Oc1ccc(C#N)c(C(F)(F)F)c1)C(=O)NCC1Cc2ccccc2CO1` (stereo not drawn) [Example 27, 2-(4-Cyano-3-trifluoromethyl-phenoxy)-4-methyl-pentanoic acid (isochroman-3-yl-methyl)-amide], the IC50 came out at 214 nM.
For `CCCC(Oc1ccc(C#N)c(C(F)(F)F)c1)C(=O)NCC1Cc2ccccc2CO1` (stereo not drawn) [Example 32, 2-(4-Cyano-3-trifluoromethyl-phenoxy)-pentanoic acid (isochroman-3-yl-methyl)amide] the value was 407 nM; for `CCCC(Oc1ccc(C#N)c(C(F)(F)F)c1)C(=O)NCc1cccc(OC)c1` (stereo not drawn) [Example 40, 2-(4-Cyano-3-trifluoromethyl-phenoxy)-pentanoic acid-3-methoxy-benzylamide], 241 nM.
In the case of `CCCC(Oc1ccc(C#N)c(C(F)(F)F)c1)C(=O)NCCc1ccc(C)cc1` (stereo not drawn) [Example 50, 2-(4-Cyano-3-trifluoromethyl-phenoxy)-pentanoic acid-(2-p-tolyl-ethyl)-amide], the 50% inhibitory concentration (IC50) turned out to be 399 nM.
For `CCCC(Oc1ccc(C#N)c(C(F)(F)F)c1)C(=O)NCCc1ccccc1OC` (stereo not drawn) [Example 51, 2-(4-Cyano-3-trifluoromethyl-phenoxy)-pentanoic acid-[2-(2-methoxy-phenyl)ethyl]-amide] the value was 381 nM; for `CC(C)CC(Oc1ccc(C#N)c(C(F)(F)F)c1)C(=O)N(Cc1ccccc1)C(C)C` (stereo not drawn) [Example 63, 2-(4-Cyano-3-trifluoromethyl-phenoxy)-4-methyl-pentanoic acid benzyl-isopropyl-amide], 482 nM; for `CCCC(Oc1ccc(C#N)c(C(F)(F)F)c1)C(=O)N(Cc1ccccc1)C(C)C` (stereo not drawn) [Example 67, 2-(4-Cyano-3-trifluoromethyl-phenoxy)-pentanoic acid benzyl-isopropyl-amide], 440 nM.
For `CC(C)CC(Oc1ccc(C#N)c(C(F)(F)F)c1)C(=O)NC(C)c1ccc(O)cc1` (stereo not drawn) [Example 69, 2-(4-Cyano-3-trifluoromethyl-phenoxy)-4-methyl-pentanoic acid [1-(4-hydroxyphenyl)-ethyl]-amide] the value was 341 nM.
For `CC(C)CC(Oc1ccc(C#N)c(C(F)(F)F)c1)C(=O)NCc1ccc(C(C)C)cc1` (stereo not drawn) [Example 70, 2-(4-Cyano-3-trifluoromethyl-phenoxy)-4-methyl-pentanoic acid 4-isopropyl-benzylamide] the value was 253 nM; for `COc1cccc(CNC(=O)C(CC(C)C)Oc2ccc(C#N)c(C(F)(F)F)c2)c1` (stereo not drawn) [Example 71, 2-(4-Cyano-3-trifluoromethyl-phenoxy)-4-methyl-pentanoic acid-3-methoxy-benzylamide], 288 nM; for `CCC(C)CNC(=O)C(CC(C)C)Oc1ccc(C#N)c(C(F)(F)F)c1` (stereo not drawn) [Example 75, 2-(4-Cyano-3-trifluoromethyl-phenoxy)-4-methyl-pentanoic acid-(2-methyl-butyl)amide], 417 nM.
For the molecule `Cc1ncccc1CNC(=O)C(CC(C)C)Oc1ccc(C#N)c(C(F)(F)F)c1` (stereo not drawn) [Example 76, 2-(4-Cyano-3-trifluoromethyl-phenoxy)-4-methyl-pentanoic acid (2-methyl-pyridin-3-yl-methyl)-amide], the half-inhibitory concentration (IC50) came to 479 nM.
For `CCCC(Oc1ccc(C#N)c(C(F)(F)F)c1)C(=O)NCc1cccc2ccccc12` (stereo not drawn) [Example 77, 2-(4-Cyano-3-trifluoromethyl-phenoxy)-pentanoic acid (naphthalene-1-yl-methyl)amide] the value was 292 nM; for `Cc1ccc(NC(=O)C(CC(C)C)Oc2ccc(C#N)c(C(F)(F)F)c2)cc1O` (stereo not drawn) [Example 88, 2-(4-Cyano-3-trifluoromethyl-phenoxy)-4-methyl-pentanoic acid (3-hydroxy-4-methyl-phenyl)-amide], 296 nM; for `CCCC(Oc1ccc(C#N)c(C(F)(F)F)c1)C(=O)NCCCSC` (stereo not drawn) [Example 89, 2-(4-Cyano-3-trifluoromethyl-phenoxy)-pentanoic acid (3-methylsulfanyl-propyl)amide], 486 nM.
For `CCCC(Oc1ccc(C#N)c(C(F)(F)F)c1)C(=O)NCCSC` (stereo not drawn) [Example 90, 2-(4-Cyano-3-trifluoromethyl-phenoxy)-pentanoic acid (2-methylsulfanyl-ethyl)amide] the value was 736 nM; for `COc1ccc2[nH]cc(CCNC(=O)C(CC(C)C)Oc3ccc(C#N)c(C(F)(F)F)c3)c2c1` (stereo not drawn) [Example 98, 2-(4-Cyano-3-trifluoromethyl-phenoxy)-4-methyl-pentanoic acid [2-(5-methoxy-1H-indol-3-yl)-ethyl]-amide], 279 nM.
For `CCCC(Oc1ccc(C#N)cc1Cl)C(=O)OCC` (stereo not drawn) [Example 100, 2-(2-Chloro-4-cyano-phenoxy)-pentanoic acid ethyl ester] the value was 347 nM; for `CCCOCCCNC(=O)C(CCC)Oc1ccc(C#N)c(C(F)(F)F)c1` (stereo not drawn) [Example 115, 2-(4-Cyano-3-trifluoromethyl-phenoxy)-pentanoic acid (3-propoxy-propyl)-amide], 428 nM; for `CCCC(Oc1ccc(C#N)c(C(F)(F)F)c1)C(=O)Nc1ccc(C)c(O)c1` (stereo not drawn) [Example 116, 2-(4-Cyano-3-trifluoromethyl-phenoxy)-pentanoic acid (3-hydroxy-4-methyl-phenyl)-amide], 296 nM.
